Results as given in patent US10167279B2 (NOVARTIS AG, priority 2014, dated 2019).

target: C-Raf FL (Homo sapiens (Human), UniProt P04049, Y340E/Y341E); assay: In vitro Raf activity determination (Alpha Screen, phospho-MEK), C-Raf FL (full length, Y340E/Y341E); assay type: biochemical; conditions: ATP 1 μM; 60 min pre-incubation; 1 hour reaction; column head does not say FL or TR
How it was run: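 Sf9-expressed C-Raf incubated with biotinylated kinase-dead MEK1 (K97R) in 50 mM Tris pH 7.5, 15 mM MgCl2, 0.01% BSA, 1 mM DTT with compound, 60 min at room temperature. Phospho-MEK detected by anti-p-MEK AlphaScreen luminescence; IC50 by non-linear regression.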

Chain of C-Raf FL (P04049 whole entry Y340E/Y341E): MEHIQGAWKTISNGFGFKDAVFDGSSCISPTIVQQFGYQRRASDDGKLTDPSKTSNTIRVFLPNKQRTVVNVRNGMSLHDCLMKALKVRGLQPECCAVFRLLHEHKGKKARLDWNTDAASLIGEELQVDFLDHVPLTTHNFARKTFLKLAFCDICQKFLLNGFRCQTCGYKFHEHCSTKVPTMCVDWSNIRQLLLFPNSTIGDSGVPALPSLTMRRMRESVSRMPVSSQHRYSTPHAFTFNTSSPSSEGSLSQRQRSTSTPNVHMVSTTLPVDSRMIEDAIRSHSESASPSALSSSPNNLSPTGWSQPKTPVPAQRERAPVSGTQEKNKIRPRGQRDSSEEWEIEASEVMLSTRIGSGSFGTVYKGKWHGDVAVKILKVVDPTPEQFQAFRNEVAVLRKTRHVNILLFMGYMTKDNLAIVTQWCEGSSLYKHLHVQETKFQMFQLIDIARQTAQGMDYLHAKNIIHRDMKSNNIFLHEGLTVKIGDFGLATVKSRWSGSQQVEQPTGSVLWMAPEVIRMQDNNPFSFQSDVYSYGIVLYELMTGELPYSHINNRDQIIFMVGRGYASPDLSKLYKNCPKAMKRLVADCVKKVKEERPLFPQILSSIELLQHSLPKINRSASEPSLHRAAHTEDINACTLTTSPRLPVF
Chain of C-Raf FL (P63104 whole entry partner): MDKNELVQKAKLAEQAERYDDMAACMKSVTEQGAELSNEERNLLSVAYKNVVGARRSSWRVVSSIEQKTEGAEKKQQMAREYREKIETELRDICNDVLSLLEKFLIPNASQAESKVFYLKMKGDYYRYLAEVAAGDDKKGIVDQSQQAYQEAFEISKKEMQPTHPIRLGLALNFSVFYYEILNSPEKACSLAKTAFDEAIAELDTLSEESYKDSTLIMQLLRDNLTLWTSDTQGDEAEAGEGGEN

IC50 [nM] | Compound
0.3 | CCOc1ncc(-c2cc(NC(=O)c3ccnc(C(F)(F)F)c3)ccc2C)cc1C1(C#N)CCOC1 (stereo not drawn) [Example 168, N-(3-(5-(3-cyanotetrahydrofuran-3-yl)-6-ethoxypyridin-3-yl)-4-methylphenyl)-2-(trifluoromethyl) isonicotinamide]
2 | CCOc1ncc(-c2cc(NC(=O)c3ccnc(C(C)(C)C#N)c3)ccc2C)cc1C1(C#N)CCOC1 (stereo not drawn) [Example 169, 2-(2-cyanopropan-2-yl)-N-(3-(5-(3-cyanotetrahydrofuran-3-yl)-6-ethoxypyridin-3-yl)-4-methylphenyl) isonicotinamide]
2 | CCOc1ncc(-c2cc(NC(=O)c3ccnc(C(C)(C)F)c3)cnc2C)cc1C1(C#N)CCOC1 (stereo not drawn) [Example 170, N-(5′-(3-cyanotetrahydrofuran-3-yl)-6′-ethoxy-2-methyl-[3,3′-bipyridin]-5-yl)-2-(2-fluoropropan-2-yl) isonicotinamide]
1 | CCOc1ncc(-c2cc(NC(=O)c3cccc(C(F)(F)F)c3)cnc2C)cc1C1(C#N)CCOC1 (stereo not drawn) [Example 171, N-(5′-(3-cyanotetrahydrofuran-3-yl)-6′-ethoxy-2-methyl-[3,3′-bipyridin]-5-yl)-3-(trifluoromethyl) benzamide]
1.99 | Cc1ccc(NC(=O)c2ccnc(C(F)(F)F)c2)cc1-c1cc(NCCO)nc(C2CCOCC2)c1 [Example 172, N-(3-(2-((2-hydroxyethyl)amino)-6-(tetrahydro-2H-pyran-4-yl)pyridin-4-yl)-4-methylphenyl)-2-(trifluoromethyl) isonicotinamide]
0.331 | Cc1ccc(NC(=O)c2cccc(C(F)(F)F)c2)cc1-c1cc(NCCO)nc(C2CCOCC2)c1 [Example 174]
0.83 | Cc1ccc(NC(=O)c2ccnc(C(C)(C)C#N)c2)cc1-c1cc(NCCO)nc(C2CCOCC2)c1 [Example 175, 2-(2-cyanopropan-2-yl)-N-(3-(2-((2-hydroxyethyl)amino)-6-(tetrahydro-2H-pyran-4-yl)pyridin-4-yl)-4-methylphenyl) isonicotinamide]
0.684 | Cc1ccc(NC(=O)c2ccnc(C(F)(F)F)c2)cc1-c1cc(C2CCOCC2)nc(N(CCO)CCO)c1 [Example 176]
0.621 | Cc1ccc(NC(=O)c2ccnc(C(C)(F)F)c2)cc1-c1cc(C2CCOCC2)nc(N(CCO)CCO)c1 [Example 177, N-(3-(2-(bis(2-hydroxyethyl)amino)-6-(tetrahydro-2H-pyran-4-yl)pyridin-4-yl)-4-methylphenyl)-2-(1,1-difluoroethyl) isonicotinamide]
0.136 | Cc1ccc(NC(=O)c2cccc(C(F)(F)F)c2)cc1-c1cc(C2CCOCC2)nc(N(CCO)CCO)c1 [Example 178]
0.795 | Cc1ccc(NC(=O)c2ccnc(C(C)(C)C#N)c2)cc1-c1cc(C2CCOCC2)nc(N(CCO)CCO)c1 [Example 179, N-(3-(2-(bis(2-hydroxyethyl)amino)-6-(tetrahydro-2H-pyran-4-yl)pyridin-4-yl)-4-methylphenyl)-2-(2-cyanopropan-2-yl) isonicotinamide]
0.297 | Cc1ncc(NC(=O)c2cccc(C(F)(F)F)c2)cc1-c1cc(NCCO)nc(C2CCOCC2)c1 [Example 180, N-(2′-((2-hydroxyethyl)amino)-2-methyl-6′-(tetrahydro-2H-pyran-4-yl)-[3,4′-bipyridin]-5-yl)-3-(trifluoromethyl) benzamide]
0.393 | Cc1ncc(NC(=O)c2ccnc(C(F)(F)F)c2)cc1-c1cc(NCCO)nc(C2CCOCC2)c1 [Example 181, N-(2′-((2-hydroxyethyl)amino)-2-methyl-6′-(tetrahydro-2H-pyran-4-yl)-[3,4′-bipyridin]-5-yl)-2-(trifluoromethyl) isonicotinamide]
0.951 | CCC(F)(F)c1cc(C(=O)Nc2cnc(C)c(-c3cc(NCCO)nc(C4CCOCC4)c3)c2)ccn1 [Example 182, 2-(1,1-difluoropropyl)-N-(2′-((2-hydroxyethyl)amino)-2-methyl-6′-(tetrahydro-2H-pyran-4-yl)-[3,4′-bipyridin]-5-yl) isonicotinamide]
1.99 | Cc1ncc(NC(=O)c2cccc(C(F)(F)F)c2)cc1-c1cc(C2CCOCC2)nc(N2CCC(O)CC2)c1 [Example 183, N-(2′-(4-hydroxypiperidin-1-yl)-2-methyl-6′-(tetrahydro-2H-pyran-4-yl)-[3,4′-bipyridin]-5-yl)-3-(trifluoromethyl) benzamide]
0.331 | CCC(F)(F)c1cc(C(=O)Nc2cnc(C)c(-c3cc(C4CCOCC4)nc(N4CCC(O)CC4)c3)c2)ccn1 [Example 185, 2-(1,1-difluoropropyl)-N-(2′-(4-hydroxypiperidin-1-yl)-2-methyl-6′-(tetrahydro-2H-pyran-4-yl)-[3,4′-bipyridin]-5-yl) isonicotinamide]
0.83 | Cc1ccc(NC(=O)c2cccc(C(F)(F)F)c2)cc1-c1cc(C2CCOCC2)nc(N2CCC(O)CC2)c1 [Example 186, N-(3-(2-(4-hydroxypiperidin-1-yl)-6-(tetrahydro-2H-pyran-4-yl)pyridin-4-yl)-4-methylphenyl)-3-(trifluoromethyl) benzamide]
0.684 | Cc1ccc(NC(=O)c2ccnc(C(F)(F)F)c2)cc1-c1cc(C2CCOCC2)nc(N2CCC(O)CC2)c1 [Example 187, N-(3-(2-(4-hydroxypiperidin-1-yl)-6-(tetrahydro-2H-pyran-4-yl)pyridin-4-yl)-4-methylphenyl)-2-(trifluoromethyl) isonicotinamide]
0.621 | CCC(F)(F)c1cc(C(=O)Nc2ccc(C)c(-c3cc(C4CCOCC4)nc(N4CCC(O)CC4)c3)c2)ccn1 [Example 188, 2-(1,1-difluoropropyl)-N-(3-(2-(4-hydroxypiperidin-1-yl)-6-(tetrahydro-2H-pyran-4-yl)pyridin-4-yl)-4-methylphenyl)-2-isonicotinamide]
0.136 | Cc1ccc(NC(=O)c2cccc(C(F)(F)F)c2)cc1-c1cc(OCCO)nc(C2CCOCC2)c1 [Example 189, N-(3-(2-(2-hydroxyethoxy)-6-(tetrahydro-2H-pyran-4-yl)pyridin-4-yl)-4-methylphenyl)-3-(trifluoromethyl) benzamide]
0.795 | Cc1ccc(NC(=O)c2ccnc(C(F)(F)F)c2)cc1-c1cc(OCCO)nc(C2CCOCC2)c1 [Example 190, N-(3-(2-(2-hydroxyethoxy)-6-(tetrahydro-2H-pyran-4-yl)pyridin-4-yl)-4-methylphenyl)-2-(trifluoromethyl) isonicotinamide]
0.1 | Cc1ccc(NC(=O)c2ccnc(C(C)(F)F)c2)cc1-c1cc2c(c(C3CCOCC3)c1)NC(=O)C(C)(CO)O2 (stereo not drawn) [Example 191, 2-(1,1-difluoroethyl)-N-(3-(2-(hydroxymethyl)-2-methyl-3-oxo-5-(tetrahydro-2H-pyran-4-yl)-3,4-dihydro-2H-benzo [b][1,4]oxazin-7-yl)-4-methylphenyl) isonicotinamide]
0.3 | Cc1ccc(NC(=O)c2cc(C(F)(F)F)ccn2)cc1-c1cc2c(c(C3CCOCC3)c1)NC(=O)C(C)(CO)O2 (stereo not drawn) [Example 192, N-(3-(2-(hydroxymethyl)-2-methyl-3-oxo-5-(tetrahydro-2H-pyran-4-yl)-3,4-dihydro-2H-benzo [b][1,4]oxazin-7-yl)-4-methylphenyl)-4-(trifluoromethyl) picolinamide]
0.03 | Cc1ccc(NC(=O)c2cc(C(F)(F)F)cnn2)cc1-c1cc2c(c(C3CCOCC3)c1)NC(=O)C(C)(CO)O2 (stereo not drawn) [Example 195, N-(3-(2-(hydroxymethyl)-2-methyl-3-oxo-5-(tetrahydro-2H-pyran-4-yl)-3,4-dihydro-2H-benzo [b][1,4]oxazin-7-yl)-4-methylphenyl)-5-(trifluoromethyl) pyridazine-3-carboxamide]
0.4 | Cc1ccc(NC(=O)c2ccnc(C(F)(F)F)c2)cc1-c1cc2c(c(C3CCOCC3)c1)OC(C)(C)C(=O)N2 [Example 196, N-(3-(2,2-dimethyl-3-oxo-8-(tetrahydro-2H-pyran-4-yl)-3,4-dihydro-2H-benzo[b][1,4]oxazin-6-yl)-4-methylphenyl)-2-(trifluoromethyl) isonicotinamide]
0.4 | Cc1ccc(NC(=O)c2ccnc(C(C)(F)F)c2)cc1-c1cc2c(c(C3CCOCC3)c1)OC(C)(C)C(=O)N2 [Example 197, 2-(1,1-difluoroethyl)-N-(3-(2,2-dimethyl-3-oxo-8-(tetrahydro-2H-pyran-4-yl)-3,4-dihydro-2H-benzo[b][1,4]oxazin-6-yl)-4-methylphenyl) isonicotinamide]
1 | Cc1ccc(NC(=O)c2cc(C(F)(F)F)ccn2)cc1-c1cc2c(c(C3CCOCC3)c1)OC(C)(C)C(=O)N2 [Example 199, N-(3-(2,2-dimethyl-3-oxo-8-(tetrahydro-2H-pyran-4-yl)-3,4-dihydro-2H-benzo[b][1,4]oxazin-6-yl)-4-methylphenyl)-4-(trifluoromethyl) picolinamide]
0.5 | Cc1ccc(NC(=O)c2ccnc(C(F)(F)F)c2)cc1-c1cc2c(c(C3CCOCC3)c1)OC(C)(CO)C(=O)N2 (stereo not drawn) [Example 200, N-(3-(2-(hydroxymethyl)-2-methyl-3-oxo-8-(tetrahydro-2H-pyran-4-yl)-3,4-dihydro-2H-benzo[b][1,4]oxazin-6-yl)-4-methylphenyl)-2-(trifluoromethyl) isonicotinamide]
0.1 | Cc1ccc(NC(=O)c2cnnc(C(F)(F)F)c2)cc1-c1cc2c(c(C3CCOCC3)c1)OC(C)(CO)C(=O)N2 (stereo not drawn) [Example 201, N-(3-(2-(hydroxymethyl)-2-methyl-3-oxo-8-(tetrahydro-2H-pyran-4-yl)-3,4-dihydro-2H-benzo[b][1,4]oxazin-6-yl)-4-methylphenyl)-6-(trifluoromethyl) pyridazine-4-carboxamide]
0.3 | Cc1ccc(NC(=O)c2cc(C(F)(F)F)ccn2)cc1-c1cc2c(c(C3CCOCC3)c1)OC(C)(CO)C(=O)N2 (stereo not drawn) [Example 202, N-(3-(2-(hydroxymethyl)-2-methyl-3-oxo-8-(tetrahydro-2H-pyran-4-yl)-3,4-dihydro-2H-benzo[b][1,4]oxazin-6-yl)-4-methylphenyl)-4-(trifluoromethyl) picolinamide]
